From the CheMixHub ionic liquid set
Values joined by “and” are separate entries in the source; they are usually repeats but may differ in a detail not shown here. Equal values may be shown once.

Test: xn = mol fraction of the nth substance listed

O=S(=O)([N-]S(=O)(=O)C(F)(F)F)C(F)(F)F.O=S(=O)([N-]S(=O)(=O)C(F)(F)F)C(F)(F)F.[Zn+2] + CCCC[N+]1(C)CCCC1.O=S(=O)([N-]S(=O)(=O)C(F)(F)F)C(F)(F)F
100 kPa, x1 = 0.24
Details | electrical conductivity [S/m]
356.5 K | 0.306
409.4 K | 1.24

CC[N+](CC)(CC)CC.[Cl-] + CNCCO
101.3 kPa
Details | viscosity [mPa·s]
293.15 K, x1 = 0.1413 | 23.7
303.15 K, x1 = 0.1114 | 14.3
308.15 K, x1 = 0.09139 | 11.4
313.15 K, x1 = 0.1413 | 10.3
318.15 K, x1 = 0.1413 | 8.78
323.15 K, x1 = 0.1114 | 7.1
323.15 K, x1 = 0.1413 | 7.56
328.15 K, x1 = 0.09139 | 5.45

CCCC[n+]1ccn(C)c1.N#C[S-] + CCCCCO
101 kPa
Details | viscosity [mPa·s]
308.15 K, x2 = 0.0193 | 31.1
308.15 K, x2 = 0.1443 | 23.4
318.15 K, x2 = 0.5557 | 7.31
328.15 K, x2 = 0.7302 | 3.71
338.15 K, x2 = 0 | 12.7
338.15 K, x2 = 0.3843 | 6.75
338.15 K, x2 = 0.616 | 4.13
348.15 K, x2 = 0.2751 | 6.6
348.15 K, x2 = 0.3843 | 5.49
348.15 K, x2 = 0.7914 | 2.17
348.15 K, x2 = 0.9135 | 1.5

C[n+]1ccn(CCCCCn2cc[n+](C)c2)c1.O=S(=O)([N-]S(=O)(=O)C(F)(F)F)C(F)(F)F.O=S(=O)([N-]S(=O)(=O)C(F)(F)F)C(F)(F)F + CN1CCCC1=O
viscosity [mPa·s], 101 kPa
Details | 293.15 K | 303.15 K | 313.15 K | 323.15 K | 333.15 K
x1 = 0.3841 | 153.6 | 96 | 60.8 | 41.6 | 25.6
x1 = 0.5551 | 349 | 188.8 | 118.4 | 76.8 | 51.2
x1 = 1 | 1123 | 557 | 310 | 188.8 | 121.6

CCCCCCCCCCCn1cc[n+](C)c1.O=S(=O)([N-]S(=O)(=O)C(F)(F)F)C(F)(F)F + O
Details | viscosity [mPa·s]
338.15 K, 100 kPa, x2 = 0.1567 | 20.54

CC[N+](CC)(CC)CC.[Cl-] + NCCCO
viscosity [mPa·s], 101.3 kPa
Details | 293.15 K | 298.15 K | 303.15 K | 308.15 K | 313.15 K | 318.15 K | 323.15 K | 328.15 K | 333.15 K
x2 = 0.8 | 55.2 | 42.4 | 32.9 | 26.2 | 21.2 | 17.4 | 14.4 | 12.1 | 10.3
x2 = 0.8571 | 46.6 | 35.8 | 27.9 | 22.3 | 18 | 14.8 | 12.3 | 10.4 | 8.8
x2 = 0.8889 | 43.4 | 33.4 | 26.1 | 21 | 16.9 | 14 | 11.6 | 9.8 | 8.3

CC(=O)[O-].CC[n+]1ccn(C)c1 + [N-]=C=S.[NH4+]
313.15 K, 101 kPa, x2 = 0
Details | electrical conductivity [S/m] | viscosity [mPa·s]
– | 0.6 | 56.4

OC[C@H]1O[C@H](O[C@H]2[C@H](O)[C@@H](O)C(O)O[C@@H]2CO)[C@H](O)[C@@H](O)[C@@H]1O (some centres undefined) + O + CCCC[n+]1ccn(C)c1.[Cl-]
298.15 K, 101.3 kPa
Details | electrical conductivity
x1 = 0.003591, x3 = 5.29e-06 | 0.00303 S/m
x1 = 0.003591, x3 = 8.39e-06 | 0.00457 S/m
x1 = 0.003591, x3 = 1.182e-05 | 0.00625 S/m
x1 = 0.003591, x3 = 1.516e-05 | 0.00787 S/m
x1 = 0.003591, x3 = 1.84e-05 | 0.00941 S/m
x1 = 0.003591, x3 = 2.179e-05 | 0.011 S/m
x1 = 0.003591, x3 = 2.475e-05 | 0.01239 S/m
x1 = 0.003591, x3 = 2.776e-05 | 0.0138 S/m
x1 = 0.003591, x3 = 3.087e-05 | 0.01519 S/m
x1 = 0.003591, x3 = 3.39e-05 | 0.0165 S/m
x1 = 0.003591, x3 = 3.679e-05 | 0.0179 S/m
x1 = 0.007156, x3 = 7.85e-06 | 0.00369 S/m
x1 = 0.007156, x3 = 1.182e-05 | 0.00532 S/m
x1 = 0.007156, x3 = 1.573e-05 | 0.00691 S/m
x1 = 0.007156, x3 = 1.984e-05 | 0.00855 S/m
x1 = 0.007156, x3 = 2.38e-05 | 0.01011 S/m
x1 = 0.007156, x3 = 2.785e-05 | 0.0117 S/m
x1 = 0.007156, x3 = 3.214e-05 | 0.01336 S/m
x1 = 0.007156, x3 = 3.627e-05 | 0.0149 S/m
x1 = 0.007156, x3 = 4.07e-05 | 0.0166 S/m
x1 = 0.007156, x3 = 4.483e-05 | 0.01815 S/m
x1 = 0.0107, x3 = 7.55e-06 | 0.0031 S/m
x1 = 0.0107, x3 = 1.145e-05 | 0.00447 S/m
x1 = 0.0107, x3 = 1.56e-05 | 0.0059 S/m
x1 = 0.0107, x3 = 1.953e-05 | 0.00725 S/m
x1 = 0.0107, x3 = 2.385e-05 | 0.0087 S/m
x1 = 0.0107, x3 = 2.86e-05 | 0.01028 S/m
x1 = 0.0107, x3 = 3.328e-05 | 0.0118 S/m
x1 = 0.0107, x3 = 3.79e-05 | 0.01332 S/m
x1 = 0.0107, x3 = 4.278e-05 | 0.0149 S/m
x1 = 0.0107, x3 = 4.74e-05 | 0.01635 S/m
x1 = 0.0107, x3 = 5.2e-05 | 0.0178 S/m
x1 = 0.01421, x3 = 1.044e-05 | 0.00364 S/m
x1 = 0.01421, x3 = 1.582e-05 | 0.0052 S/m
x1 = 0.01421, x3 = 2.09e-05 | 0.00666 S/m
x1 = 0.01421, x3 = 2.625e-05 | 0.00817 S/m
x1 = 0.01421, x3 = 3.215e-05 | 0.00982 S/m
x1 = 0.01421, x3 = 3.779e-05 | 0.01136 S/m
x1 = 0.01421, x3 = 4.365e-05 | 0.013 S/m
x1 = 0.01421, x3 = 4.958e-05 | 0.0146 S/m
x1 = 0.01421, x3 = 5.535e-05 | 0.01611 S/m
x1 = 0.0177, x3 = 7.16e-06 | 0.00235 S/m
x1 = 0.0177, x3 = 1.43e-05 | 0.00413 S/m
x1 = 0.0177, x3 = 2.14e-05 | 0.00587 S/m
x1 = 0.0177, x3 = 2.851e-05 | 0.0076 S/m
x1 = 0.0177, x3 = 3.535e-05 | 0.00922 S/m
x1 = 0.0177, x3 = 4.182e-05 | 0.0107 S/m
x1 = 0.0177, x3 = 4.861e-05 | 0.01232 S/m
x1 = 0.0177, x3 = 5.526e-05 | 0.0138 S/m
x1 = 0.0177, x3 = 6.177e-05 | 0.01534 S/m
x1 = 0.0177, x3 = 6.769e-05 | 0.0167 S/m
x1 = 0.0177, x3 = 7.386e-05 | 0.01804 S/m
x1 = 0.02116, x2 = 0.9788 | 0.0134 S/m and 0.0146 S/m and 0.0157 S/m
